Assay results: paper PMC8571951, “An activity‐based bioprobe differentiates a novel small molecule inhibitor from a LOXL2 antibody and provides renewed promise for anti‐fibrotic therapeutic strategies” (Clinical and Translational Medicine, 2021)

Target: T1, LOXL2 (Homo sapiens, UniProt Q9Y4K0)
T1 sequence (Q9Y4K0 26-774): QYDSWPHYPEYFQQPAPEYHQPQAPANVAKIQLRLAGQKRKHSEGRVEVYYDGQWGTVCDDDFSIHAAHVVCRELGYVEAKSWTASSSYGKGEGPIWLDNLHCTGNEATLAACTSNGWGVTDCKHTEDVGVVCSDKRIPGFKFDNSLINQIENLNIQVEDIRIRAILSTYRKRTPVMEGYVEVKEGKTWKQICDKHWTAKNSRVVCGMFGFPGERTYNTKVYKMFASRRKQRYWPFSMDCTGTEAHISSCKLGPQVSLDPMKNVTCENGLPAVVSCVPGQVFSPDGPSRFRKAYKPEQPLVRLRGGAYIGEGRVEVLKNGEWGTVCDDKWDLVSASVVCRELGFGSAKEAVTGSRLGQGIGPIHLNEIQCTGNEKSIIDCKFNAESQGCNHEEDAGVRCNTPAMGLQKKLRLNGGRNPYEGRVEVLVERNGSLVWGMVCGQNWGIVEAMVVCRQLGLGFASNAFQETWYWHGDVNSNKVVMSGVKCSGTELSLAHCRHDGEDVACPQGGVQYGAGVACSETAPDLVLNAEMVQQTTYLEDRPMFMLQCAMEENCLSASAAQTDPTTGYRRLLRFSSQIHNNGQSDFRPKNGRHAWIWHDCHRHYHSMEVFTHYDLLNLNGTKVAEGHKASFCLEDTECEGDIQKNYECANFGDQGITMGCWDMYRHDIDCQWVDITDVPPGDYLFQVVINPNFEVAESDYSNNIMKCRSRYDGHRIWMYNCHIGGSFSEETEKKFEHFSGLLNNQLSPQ
Assay: Standard Amplex Red assay, rh LOXL2 (putrescine substrate)
Format: biochemical
Conditions: for IC50: Amplex Red assay, 30 min pre-incubation
Description: FIGURE 1 Characteristics of the activity‐based probe (ABP) PXS‐5878. (A) Chemical structure of PXS‐5878, with functional subunits denoted with different colours. The fluoroallylamine moiety (blue) was designed to interact with the lysine tyrosylquinone (LTQ) co‐factor within the lysyl oxidase active sites. An extended linker (green) was incorporated to provide optimal separation between the reactive functional group and the tag, avoiding unfavourable steric hindrance. Biotin was selected as a tag, with higher sensitivity found to be achieved using a double tag (red), resulting in PXS‐5878 as the preferred ABP. (B) Concentration‐dependent inhibition of recombinant human (rh) lysyl oxidase‐like 1‐4 (LOXL1‐4) and native bovine LOX in a standard Amplex Red assay with 30 min pre‐incubation; n = 3–4 independent experiments, standard error of mean (SEM). Native bovine LOX was used as a surrogate for human LOX as both enzymes have similar pharmacology for fluoroallylamines.[2], [9] (C) Irreversible nature of PXS‐5878 enzyme inhibition confirmed using a jump dilution assay. Enzyme (rh LOXL1, rh LOXL2 or LOXL3) was pre‐incubated with 10 × IC50 of PXS‐5878 for 30 min, then diluted 100x and remaining activity assessed by Amplex Red assay. […] Each value is an average of three experiments. (D) Schematic representation of the assay development to detect lysyl oxidase activity by PXS‐5878 using a direct enzyme‐linked assay with lysyl oxidases as the target analyte. HRP: horseradish peroxidase; TMB: 3,3′,5,5′‐tetramethylbenzidine, a chromogenic substrate. After target analyte is bound to the plate, PXS‐5878 was incubated for 60 min in the presence or absence of a pan‐LOX inhibitor (β‐aminopropionitrile, [BAPN]) and streptavidin‐HRP is then added. After incubation the plate is washed and TMB added to measure the amount of bound ABP/streptavidin/HRP. This leads to a high signal. Application of BAPN to block the enzymatic site prevents PXS‐5878 from binding, and it is consequently washed off the plate, resulting in a low signal. In the final Simoa® assay, the enzyme is bound by the antibody to the bead. (E) Detection of enzymatically active lysyl oxidases by PXS‐5878. rh LOXL1, LOXL2 or LOXL3 were immobilised on the surface of a microtiter plate and processed as described in (D). Optical density in the absence of the pan‐LOX inhibitor BAPN (high signal) was divided by the value in the presence of BAPN (low signal). Low signal was 1.81 ± 0.77 (n = 8) times larger than blank controls. Two independent replicates were performed (total n = 4–5 for each enzyme).
Small molecule, selective LOXL2 (PXS‐5338, Figure S3) or pan‐LOX inhibitors compete with substrate but ultimately occupy the enzymatic pocket, irrespective of whether the substrate is small (e.g., putrescine) or large (e.g., collagen). […] Further studies with AB0023 were therefore limited to 300 nM.
FIGURE 2 Characteristics of PXS‐5338 and inhibition of lysyl oxidase‐like 2 (LOXL2) enzymatic activity in vitro and in vivo. (A) Chemical structure of PXS‐5338. […] (B) Tissue levels of PXS‐5338 measured 1 and 4 h after a single oral dose of 30 mg/kg in the rat. […] Average data from three different animals. (C) Concentration‐dependent inhibition of native human LOX and rh LOXL1‐4 in a standard Amplex Red assay with 30 min pre‐incubation; n ≥3 independent experiments, standard error of mean (SEM). (D) PXS‐5338 inhibits rh LOXL2 in a time‐dependent manner, with increasing potency observed upon longer incubation with the enzyme. […]

Row | Structure (SMILES) | IC50 [nM] | Concentration at which full inhibition of rh LOXL2 is achieved (standard assay using putrescine or collagen as substrate) | Pre-incubation time after which inhibition of rh LOXL2 is complete (varying pre-incubation times, putrescine as substrate) [h] | Change of potency with increasing substrate (putrescine) concentration (substrate added simultaneously with inhibitor)
1 | NC/C=C(\F)CS(=O)(=O)c1cccc(Cn2cc(-c3cc(OCCCc4cn(CCCCC[C@@H]5SC[C@@H]6NC(=O)N[C@@H]65)nn4)cc(OCCCc4cn(CCCCC[C@@H]5SC[C@@H]6NC(=O)N[C@@H]65)nn4)c3)nn2)c1 [PXS-5878] | 203 | – | – | –
2 | CC(C)c1c(Cc2ccc(S(C)(=O)=O)nc2)c2ncccc2n1C/C(F)=C/CN [PXS‐5338] | 35 | above 300 nM | 2 | –
3 | CC(C)c1c(Cc2ccc(S(C)(=O)=O)nc2)c2ncccc2n1C/C(F)=C/CN [PXS-5338] | – | – | – | potency of PXS-5338 decreases
